Measured values: US12195419B2, “Glutamine antagonists and uses thereof” (The Johns Hopkins University, priority 2017, dated 2025)
Where two headings read alike, the source gives them in different places. Blank lines part the entries; values can stand above or below the compound they belong to.

Columns and labels:
P493B lymphoma cells [1] = test: Human tumor cell to plasma partitioning assay, single time-point (compounds 1, 7, 12, 16 and DON); format: cell-based; details: 20 μM; for DON release in plasma: human plasma containing P493B cells, 1 h incubation
Experimental: Compounds 1, 7, 12 and 16 were evaluated for their ability to be taken up in tumor cells and cleaved to give DON. The experimental conditions are described below.
(§1) Tumor cell to plasma partitioning assay was conducted in P493B lymphoma cells (obtained from Dr. Chi Dang, Abramson Cancer Center, University of Pennsylvania, Philadelphia, PA; (REF, Nature 458, 762-765, 2009). In brief, cells were grown in 150 cm^2 cell T-flasks (Falcon™, USA) with RPMI 1640, 1× L-glutamine medium (Corning™ Cellgro™, USA) supplemented with 10% (v/v) FBS (Gibco™, USA), and 1% streptomycin and gentamycin (Gibco™, USA). All cells were incubated at 37° C., in a humidified atmosphere with 5% CO2. The cell confluency was monitored visually using an Axiovert 25 optical microscope equipped with an 3CCD digital camera. Upon confluency, cell suspension was collected and centrifuged at 1000 rpm for 5 min at 25° C. to collect the cell pellet. The supernatant media was decanted, the cell pellet was re-suspended in 20 mL of DPBS (Gibco™, USA), and maintained at 37° C. in order to remove the media traces.
The cell count was determined using an automated cell counter (Bio-Rad, USA) following a 1:1 dilution of an aliquot with 0.4% trypan blue solution (Bio-Rad, USA). The cell suspension in DPBS was centrifuged at 1000 rpm for 5 min at 25° C. to collect the cell pellet. The supernatant DPBS was decanted and the cell pellets were resuspended in human plasma (Innovative Research, USA) to obtain a cell density of 10 million cells/mL of plasma. For analysis of cell partitioning cell-plasma suspension, 1 ml, was pre-incubated at 37° C. for 5 min, following which, compounds were spiked for a final concentration of 20 μM and re-incubated at 37° C. for 1 h. Following incubation, the cell suspension was centrifuged at 10000 rpm for 10 min at 4° C. Supernatant plasma obtained after centrifugation was collected and stored at −80° C. for intact compound and DON analysis. The cell pellet was washed once with ice cold DPBS, followed by centrifugation and stored at −80° C. for intact prodrug and/or DON analysis by LC-MS/MS.
For quantification of DON and intact compound, cell pellets were weighed and suspended in 50 μL of water. To the cell suspension, ice cold methanol with internal standards (losartan: 0.5 μM and glutamate D5: 10 μM) were added in a 5:1 ratio of solvent to cell suspension. The cell samples were vortexed, mixed for 30 sec and centrifuged at 10,000 rpm for 10 min at 4° C. For intact compound bioanalysis, 50 μL of the supernatant obtained after centrifugation was diluted with 50 μL water and transferred to a 250 μL polypropylene vial sealed with a Teflon cap. DON bioanalysis was performed following dabsyl chloride derivatization method with minor modifications (see, Rais et al., 2016; Nedelcovych et al., 2017). Briefly, 200 μL of the supernatant was collected in a separate tube and dried at 45° C. under vacuum for 1 h. To each tube, 50 μL of 0.2 M sodium bicarbonate buffer (pH 9.0) and 100 μL dabsyl chloride stock was added. […] The standard curve for DON quantification in the cell pellet was prepared using naïve P493B cells diluted with water to the equivalent ratio as that of sample.
Briefly, DON was analyzed on a Dionex ultra high-performance system consisting of an analytical pump, and an autosampler coupled with Q Exactive Focus orbitrap mass spectrometer (Thermo Fisher Scientific Inc., Waltham MA). […]

[2] = Dog pharmacokinetic study of compound #2 (IV infusion or SC); format: in vivo; details: intact #2 in plasma, 0.2 mg/kg DON equivalent, male beagle dog; for AUC(0-t): read-out: Intact compound AUC0-t
Experimental: The dog pharmacokinetic study was conducted in accordance with the guidelines recommended in Guide for the Care and Use of Laboratory Animals and was approved by the Absorption Systems (San Diego, CA) Institutional Animal Care and Use Committee. Compound #2 was administered to male beagle dogs (n=1/group) as a bolus subcutaneous dose or infused over 1 h at a dose of 0.2 mg/kg DON equivalent. Blood samples were collected from the jugular vein (˜1 mL) via direct venipuncture at 0 min, 5 min (IV only), 15 min, 1 h, 2 h, 4 h, 8 h, and 24 h, post dose, placed into sodium heparin tubes, and maintained on wet ice until processing. Blood samples were centrifuged at a temperature of 4° C., at 3000× g, for 5 minutes. Plasma was collected in tubes and flash frozen. Samples were stored in a freezer set to maintain −60° C. to −80° C. until bioanalysis as described previously (see, Rais et al., 2016; Nedelcovych et al., 2017).

P493B tumor cells = test: Time dependent tumor cell to plasma partitioning of compound 7; format: cell-based, human
Experimental: as §1
The cell count was determined using an automated cell counter (Bio-Rad, USA) following a 1:1 dilution of an aliquot with 0.4% trypan blue solution (Bio-Rad, USA). The cell suspension in DPBS was centrifuged at 1000 rpm for 5 min at 25° C. to collect the cell pellet. The supernatant DPBS was decanted and the cell pellets were resuspended in human plasma (Innovative Research, USA) to obtain a cell density of 10 million cells/mL of plasma. […]

[3] = Compound 7 dog pharmacokinetic study (SC); format: in vivo; details: beagle dog plasma, actual dose 2.6 mg/kg (DON eq. 0.8 mg/kg)
Description: Compound 7 was administrated to a beagle dog subcutaneously. FIG. 4C is a line graph showing its plasma pharmacokinetics in the dog.

P493B lymphoma cells [4] = test: Cell proliferation assay (CellTiter 96 AQueous); format: cell-based, human; details: for EC50: Homo sapiens, 72 h incubation, read-out: EC50 (cell viability)
Experimental: The cell proliferation assay was performed using the CellTiter 96® AQueous one solution cell proliferation reagent following the manufacturers' instruction (Promega, USA). Briefly, P493B lymphoma cells were plated in 96 well plates at a density of 20,000 cells/well in a final volume of 100 μL growth media. Test compound stocks were made in DMSO and were added to cells in a 1:10 serial dilution with a final concentration of 0.2% DMSO. Cells were allowed to proliferate for 72 h in the presence of test compounds. Thereafter, 20 μL of CellTiter 96™ AQeous (Promega #3580) was added per well and incubated for 2 h. Absorbance was measured at 490 nm.
DON and compound 7 were incubated with P493B lymphoma cells for 72 h, and cell viability was measured.

DON release in plasma (P493B lymphoma cells [1]): minimal DON release
Compound: CC(=O)NCCCC[C@H](NC(=O)[C@H](Cc1c[nH]c2ccccc12)NC(C)=O)C(=O)N[C@@H](CCC(=O)C=[N+]=[N-])C(=O)OC(C)C (stereo in doubt) [Compound 12, Isopropyl 2-(6-acetamido-2-(2-acetamido-3-(1H-indol-3-yl)propan-amido)hexanamido)-6-diazo-5-oxohexanoate]

DON release in plasma (P493B lymphoma cells [1]): minimal DON release
DON release in tumor cells (tumor cell DON concentrations) (P493B lymphoma cells [1]; human plasma with 10 million P493B cells, 37° C., 1 h, compared to DON): minimal release
Compound: CC(=O)NCCCC[C@H](NC(=O)[C@@H]1Cc2ccccc2CN1C(C)=O)C(=O)N[C@@H](CCC(=O)C=[N+]=[N-])C(=O)OC(C)C (stereo in doubt) [Compound 16, Isopropyl 2-(6-acetamido-2-(2-acetyl-1,2,3,4-tetrahydroisoquinoline-3-carboxamido)hexanamido)-6-diazo-5-oxohexanoate]

Compound: CC(=O)NCCCC[C@H](NC(=O)OC(C)(C)C)C(=O)N[C@@H](CCC(=O)C=[N+]=[N-])C(=O)OC(C)C [Compound 1, Isopropyl 2-(6-acetamido-2-((tert-butoxycarbonyl)amino)-hexanamido)-6-diazo-5-oxohexanoate]
DON release in plasma (P493B lymphoma cells [1]): minimal DON release

Cmax ([2]; IV infusion over 1 h): 6.57 µM
Tmax ([2]; IV infusion over 1 h): 0.08 h
AUC(0-t) ([2]; IV infusion over 1 h): 7450 nM·h
Cmax ([2]; SC bolus): 0.47 µM
Tmax ([2]; SC bolus): 4 h
AUC(0-t) ([2]; SC bolus): 2600 nM·h
Compound: CC(=O)NCCCC[C@H](NC(=O)OCC1c2ccccc2-c2ccccc21)C(=O)N[C@@H](CCC(=O)C=[N+]=[N-])C(=O)OC(C)C [Compound 2, Isopropyl 2-(2-((((9H-fluoren-9-yl)methoxy)carbonyl)amino)-6-acet-amidohexanamido)-6-diazo-5-oxohexanoate]

DON release in plasma (P493B lymphoma cells [1]): minimal DON release
intact compound observed in tumor cells (P493B tumor cells): < 1%
AUC ([3]; N = 1, read-out: AUC Cpd 7): 2100 nM·h
Cmax ([3]; N = 1, read-out: Cmax Cpd 7): 0.64 µM
EC50 (P493B lymphoma cells [4]): 5 ± 0.12 µM
Compound: CC(=O)NCCCC[C@H](NC(=O)C12CC3CC(CC(C3)C1)C2)C(=O)N[C@@H](CCC(=O)C=[N+]=[N-])C(=O)OC(C)C [Compound 7]
improvement of tumor cell killing vs DON (P493B lymphoma cells [4]; 72 h, EC50 compared to DON): two-fold

Compound: [N-]=[N+]=CC(=O)CC[C@H](N)C(=O)O [DON, 6-diazo-5-oxo-L-norleucine, reference compound]
EC50 (P493B lymphoma cells [4]): 10 ± 0.11 µM
